Experimental findings from patent US10961278B2, “Vancomycin derivative, preparation method, pharmaceutical composition and use thereof” (SHANGHAI INSTITUTE OF MATERIA MEDICA, CHINESE ACADEMY OF …, priority 2016, dated 2021) are described below.

≈ marks a conversion by molar mass, not a printed value. Entries after “also recorded” stand apart in the source; their conditions may differ. Read-outs that look alike come from different tables or passages of the source.

Series [1] has as its system vancomycin-sensitive Staphylococcus aureus Newman strain. Nature of the series: In vitro antibacterial activity assay (MIC, CLSI dilution method). Type of series: cell-based. The settings on record: Staphylococcus aureus, S. aureus Newman, 37° C., 16 h.
Series [2] concerns vancomycin-middle resistant Staphylococcus aureus Mu50 strain. The description is as above. Type of series: cell-based.
Series [3] deals with Staphylococcus aureus USA300 LAC strain (CA-MRSA). Type of series: in vivo. The settings on record: for in vivo antibacterial activity against methicillin-resistant Staphylococcus aureus, comparison with positive controls: BALB/c mice, 7 mg/kg i.p., 10 days.
The conditions of series [4]: male, CD-1, mouse, in vivo, iv, 5 mg/kg.
Series [5] in a line: In vivo pharmacokinetic assay in mice. The settings on record: for AUCINF_obs / AUClast / CL_obs / MRTINF_obs / T1/2 / VSS_obs: male CD-1 mice, intravenous single dose 5 mg/kg; for AUC(0-inf) / AUC(0-t) / MRT inf / half-life: male, CD-1, mouse, in vivo, iv, 5 mg/kg.
Series [6] relates to HK-2 cells (human renal proximal tubular epithelial cells). The series can be described thus: Kidney cytotoxicity assay (CCK8 cell viability). Type of series: cell-based. The following applies: HK-2 cells, 10, 50, 100 μM, 72 h. The procedure: (§1) Liver and kidney cell viability assays were performed using the Cell Activity Assay Kit CCK8 (Cell Counting Kit-8) method. HK-2 cells (human renal proximal tubular epithelial cells) and HL-7702 cells (human liver cells) in logarithmic growth phase were inoculated to a 96-well culture plate at a suitable density (about 5000 cells), at 100 μL per well. […] Three replicate wells were set for each concentration, and the physiological saline vehicle control well corresponding to each concentration and a well for cell-free zero-adjustment were set. After the treatment, 10 μL of CCK8 detection solution was added into each well, the incubation was performed at 37° C. for about 1.5 h. The optical density (OD value) at 450 nm was measured on a […] microplate reader. The OD value was converted to cell viability value according to the following equation: […] wherein, ODC represents the optical density obtained by different concentrations of the compounds to be tested, C represents the concentration of the compound, and ODC=0 represents the optical density obtained without addition of the compound to be tested.

The subject of series [7] is HL-7702 cells (human liver cells). Nature of the series: Liver cytotoxicity assay (CCK8 cell viability). Type of series: cell-based. The settings on record: HL-7702 cells, 10, 50, 100 μM, 72 h. The procedure: as §1
A short description of series [8]: in vivo. The settings on record: male, CD-1, mouse, iv, 5 mg/kg.
Setting [9] is: Staphylococcus aureus; S. aureus Mu50, 37° C., 16 h; read-out: MIC Mu50.
Where [10] appears, read: Staphylococcus aureus, 16 h, read-out: MIC Mu50.
Setting [11] is: female BALB/c mice, USA300 LAC retro-orbital, single dose 7 mg/kg intraperitoneally 1 h after infection, after 10 days.

Usually MIC stands for the lowest concentration that inhibits growth of the organism. Compound `CN[C@H](CC(C)C)C(=O)N[C@H]1C(=O)N[C@@H](CC(N)=O)C(=O)N[C@H]2C(=O)N[C@H]3C(=O)N[C@H](C(=O)N[C@H](C(=O)O)c4cc(O)cc(O)c4-c4cc3ccc4O)[C@H](O)c3ccc(c(Cl)c3)Oc3cc2cc(c3O[C@@H]2O[C@H](CO)[C@@H](O)[C@H](O)[C@H]2O[C@H]2C[C@](C)(N)[C@H](O)[C@H](C)O2)Oc2ccc(cc2Cl)[C@H]1O` [Vanco., vancomycin] gave an MIC in series [1] of 2 µg/mL (≈ 1.38 µM). In series [2] (setting [9]), the MIC was found to be 8 µg/mL (≈ 5.52 µM). The survival rate in series [3] (in vivo, ip, 7 mg/kg) is reported as 6.6%. This compound registered a VSS_obs in series [4] of 3.076 ± 0.175 L/kg. In series [5], this compound returned an AUCINF_obs of 1271 ± 347 ng·h/mL, an AUClast of 1242 ± 335 ng·h/mL, a CL_obs of 68.7 ± 18 mL/min/kg and an MRTINF_obs of 0.790 ± 0.26 h. Further, in series [5], the T1/2 is recorded as 0.597 ± 0.208 h.

In series [1], `CCCCCCCCCCNCCN[C@@]1(C)C[C@H](O[C@H]2[C@H](Oc3c4cc5cc3Oc3ccc(cc3Cl)[C@@H](O)[C@@H](NC(=O)[C@@H](CC(C)C)NC)C(=O)N[C@@H](CC(N)=O)C(=O)N[C@H]5C(=O)N[C@H]3C(=O)N[C@H](C(=O)N[C@H](C(=O)O)c5cc(O)c(CNCP(=O)(O)O)c(O)c5-c5cc3ccc5O)[C@H](O)c3ccc(c(Cl)c3)O4)O[C@H](CO)[C@@H](O)[C@@H]2O)O[C@@H](C)[C@H]1O` [Tela., telavancin, reference compound] displayed a minimal inhibitory concentration (MIC) below 0.0625 µg/mL. Also, the MIC in series [2] (setting [9]) was 1 µg/mL (≈ 0.57 µM). Moreover, the survival rate in series [3] (in vivo, ip, 7 mg/kg) came to 93.3%. In series [5], this compound yielded an AUCINF_obs of 17304 ± 5745 ng·h/mL, an AUClast of 17143 ± 5611 ng·h/mL, a CL_obs of 5.1 ± 1.5 mL/min/kg and an MRTINF_obs of 1.71 ± 0.13 h. The compound also displayed a T1/2 in series [5] of 1.13 ± 0.13 h.

A word on the AUC(0-inf): it is total exposure, with the tail of the curve extrapolated. One may read the AUC(0-t) as the area under the concentration-time curve up to a stated or last time point. Low values mean less exposure, high ones more exposure. A word on the MRT inf: it is the average time that molecules of a dose stay in the body. As a reminder, the half-life is the time in which the quantity being followed falls by half. Lower therefore signals fast loss. As to `CN[C@H](CC(C)C)C(=O)N[C@H]1C(=O)N[C@@H](CC(N)=O)C(=O)N[C@H]2C(=O)N[C@H]3C(=O)N[C@H](C(=O)N[C@H](C(=O)O)c4cc(O)c(CNCCO[C@@H]5OC(CO)[C@H](O)C(O)C5O)c(O)c4-c4cc3ccc4O)[C@H](O)c3ccc(c(Cl)c3)Oc3cc2cc(c3OC2O[C@H](CO)C(O)C(O)[C@H]2O[C@@H]2CC(C)[C@@H](O)C(C)(NCc3ccc(-c4ccc(C(F)(F)F)cc4)cc3)C2)Oc2ccc(cc2Cl)[C@H]1O` (stereo partly shown) [Van037], the minimal inhibitory concentration (MIC) in series [1] is at most 0.0625 µg/mL. Besides, the MIC in series [2] (setting [10]) turned out to be 0.25 µg/mL (≈ 0.13 µM). Besides, the “in vivo antibacterial activity against methicillin-resistant Staphylococcus aureus, comparison with positive controls” value (“in vivo antibacterial activity” for short) in series [3] (7 mg/kg) is “better activity than vancomycin; also recorded: comparable activities with telavancin”. This compound also returned a survival rate in series [3] (setting [11]) of 86.6%. Further, the “toxicity in kidney cells” value in series [6] is “toxicity less than vancomycin and comparable to telavancin”. For the same compound, the “toxicity in liver cells” value in series [7] was “less toxicity in liver cells than vancomycin and telavancin”. Further, in series [5], the CL_obs is on record as 4.42 ± 1.42 mL/min/kg, the VSS_obs stood at 1.077 ± 0.449 L/kg, the AUC(0-inf) stood at 20000 ± 5490 ng·h/mL and the AUC(0-t) was 16600 ± 4960 ng·h/mL. In series [5], the mean residence time (MRT inf) came to 4.21 ± 2.08 h and the half-life is 2.94 ± 1.39 h.

In the case of `CN[C@H](CC(C)C)C(=O)N[C@H]1C(=O)N[C@@H](CC(N)=O)C(=O)N[C@H]2C(=O)N[C@H]3C(=O)N[C@H](C(=O)N[C@H](C(=O)O)c4cc(O)c(CNCCCNC(=O)[C@H](O)[C@@H](O)[C@H](O)[C@H](O)CO)c(O)c4-c4cc3ccc4O)[C@H](O)c3ccc(c(Cl)c3)Oc3cc2cc(c3OC2O[C@H](CO)C(O)C(O)[C@H]2O[C@@H]2CC(C)[C@@H](O)C(C)(NCc3ccc(-c4ccc(C(F)(F)F)cc4)cc3)C2)Oc2ccc(cc2Cl)[C@H]1O` (stereo partly shown) [Van016], the MIC in series [1] (NEWMAN) was at most 0.0625 µg/mL. Also, in series [2] (Staphylococcus aureus, 16 h, S. aureus Mu50, 37° C., read-out: MIC Mu50), the MIC is 0.25 µg/mL (≈ 0.128 µM). The “in vivo antibacterial activity” value in series [3] is “better activity than vancomycin”. The compound also came in with a survival rate in series [3] (setting [11]) of 60.0%. In series [4], the CL_obs came to 6.4 ± 1.39 mL/min/kg and the VSS_obs is 1.826 ± 0.334 L/kg. In series [8], this compound had an area under the curve AUC(0-inf) of 13400 ± 12700 ng·h/mL, an AUC(0-t) of 10700 ± 2060 ng·h/mL, an MRT inf of 4.79 ± 0.24 h and a half-life of 3.72 ± 0.7 h.

Consider `CN[C@H](CC(C)C)C(=O)N[C@H]1C(=O)N[C@@H](CC(N)=O)C(=O)N[C@H]2C(=O)N[C@@H]3C(=O)N[C@H](C(=O)N[C@H](C(=O)O)c4cc(O)c(CNC5C(O)OC(CO)[C@H](O)[C@@H]5O)c(O)c4-c4cc3ccc4O)[C@H](O)c3ccc(c(Cl)c3)Oc3cc2cc(c3O[C@@H]2O[C@H](CO)C(O)C(O)[C@H]2O[C@H]2CC(C)(NCc3ccc(-c4ccc(C(F)(F)F)cc4)cc3)[C@H](O)[C@H](C)O2)Oc2ccc(cc2Cl)[C@H]1O` (stereo partly shown) [Van032], for which the MIC in series [1] is at most 0.0625 µg/mL. For the same compound, in series [2] (setting [10]), the MIC is at most 0.0625 µg/mL. Besides, the “in vivo antibacterial activity” value in series [3] is recorded as “better activity than vancomycin”. In series [3] (setting [11]), this compound showed a survival rate of 73.3%. Also, in series [5], the CL_obs was 3.45 ± 0.40 mL/min/kg, the VSS_obs was found to be 0.9 ± 0.18 L/kg, the total exposure AUC(0-inf) was 24300 ± 2800 ng·h/mL and the AUC(0-t) is 20100 ± 1710 ng·h/mL. In series [5], this compound showed an MRT inf of 4.41 ± 1.23 h and a half-life of 3.45 ± 1.26 h.
